The text below walks through data of PubChem BioAssay (NCI).

What all share (experiment): NCI-60 cell line screen, 48 h
Assay [1] has as its system T-47D breast.
Assay [2] deals with UACC-257 melanoma.
Assay [3] concerns SK-MEL-2 melanoma.
The test system of assay [4] is A498 renal.
In assay [5] the test system is OVCAR-4 ovarian.
Assay [6] relates to RXF 393 renal.
Assay [7] deals with SF-539 CNS.
Assay [8] concerns SK-OV-3 ovarian.
For assay [9], the system named is RPMI-8226 leukemia.
The subject of assay [10] is SF-295 CNS.

Structures are written as SMILES. Where “and” joins values, the source holds several entries; their conditions need not be identical. Identical values can stand only once.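 Interpolation was linear, between the two tested concentrations surrounding the appropriate level; five concentrations were tested over 48 hours in 96-well plates. GI50: concentration for 50% inhibition of growth. TGI: total growth inhibition.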 A value given as a limit tells only on which side of the number the result lay.

In the case of `COC1(c2cccs2)c2ccccc2C(OC)(c2cccs2)c2ccccc21` (configuration not stated), the TGI in assay [1] is over 100 µM; in assay [2] it was over 100 µM; in [3] it was over 100 µM; in [4] it was 83.4 µM; in assay [5], over 100 µM; in assay [6], over 100 µM. For the same compound, the TGI in assay [7], in [8], in assay [9] and in assay [10] was over 100 µM each time.
Regarding `Nc1ccc2ccc(-c3ccc[nH]3)nc2n1`, the TGI in assay [1], in assay [2], in assay [3], in assay [4], in assay [5] and in assay [6] was over 100 µM each time. Also, the TGI in assay [7], in [8], in [9] and in [10] was over 100 µM each time.
With `COC12C=CC(C=C1C#N)CC2` (configuration not stated) (tested in a mixture with another compound), the TGI in [1], in assay [2], in [3], in [4], in assay [5] and in assay [6] was over 100 µM in each case. Moreover, the TGI in assay [7], in assay [8], in [9] and in assay [10] was over 100 µM throughout.
`Cc1cc(N(CCC#N)CCC#N)ccc1/C=C1\SC(=S)NC1=O`: the TGI in assay [1] was over 100 µM; in assay [2], over 100 µM; in assay [3], over 100 µM; in assay [4], over 100 µM; in assay [5], over 100 µM; in [6], 99.8 µM. Besides, the TGI in assay [7], in assay [8], in assay [9] and in assay [10] was over 100 µM throughout.
Turning to `CC12CCC(C(=Nc3cc(C(F)(F)F)cc(C(F)(F)F)c3)C1=O)C2(C)C` (configuration not stated), the TGI was 74.3 µM in [1]; over 100 µM in assay [2]; 51.2 µM in [3]; 62.5 µM in assay [4]; over 100 µM in [5]; 37.3 µM in assay [6]. Also, the TGI in assay [7] is 44.9 µM; in [8], over 100 µM; in [9], 44.7 µM; in [10], over 100 µM.
In the case of `c1csc(-c2ccsc2-c2ccsc2)c1`, the TGI in assay [1] is over 100 µM; in assay [2] it was over 100 µM; in assay [3] it was 42.3 µM; in [4] it was over 100 µM; in [5], over 100 µM; in assay [6], 76.3 µM. Further, the TGI in assay [7], in assay [8], in [9] and in assay [10] was over 100 µM in each case.
In the case of `CN(C)CC1CCC/C(=C\c2ccc(OC(=O)/C=C/c3ccc(Cl)c(Cl)c3)cc2)C1=O` (configuration not stated), the TGI in assay [1] was 6.75 µM; in assay [2], 40.4 µM; in assay [3] it was 44.8 µM; in assay [4], 32.1 µM; in assay [5], over 60.3 µM; in [6], 4.41 µM. Moreover, the TGI in [7] was 7.19 µM; in assay [8], over 100 µM; in assay [9], 0.62 µM; in [10] it was 26.2 µM.
For the compound `COC(=O)NC(Cc1ccccc1)NC(C)=O` (configuration not stated), the TGI in assay [1], in [2], in assay [3], in [4], in [5] and in assay [6] was over 100 µM throughout. The TGI in [7], in assay [8], in [9] and in assay [10] was over 100 µM each time.
Take `O=C(c1ccc(O)c([N+](=O)[O-])c1)c1ccc(O)c([N+](=O)[O-])c1`: the TGI in assay [1], in assay [2], in assay [3], in assay [4], in [5] and in assay [6] was over 100 µM in each case. For the same compound, the TGI in assay [7], in [8], in [9] and in assay [10] was over 100 µM in each case.
With `Cc1cc(O)cc(O)c1C(=O)O[C@]1(C)C(=O)C=C2C=C(/C=C/C(=O)O)OC=C2C1=O`, the TGI in assay [1], in [2], in assay [3], in [4], in [5] and in assay [6] was over 100 µM each time. Also, the TGI in assay [7], in assay [8], in [9] and in assay [10] was over 100 µM each time.
With `N#CC[N+]1(Cc2ccccn2)CCCC1`, the TGI in assay [1], in [2], in assay [3], in assay [4], in [5] and in assay [6] was over 100 µM each time. In addition, the TGI in assay [7], in assay [8], in assay [9] and in [10] was over 100 µM in each case.
Consider `O=[N+]([O-])c1cccc(Cl)c1Oc1ccc(S(=O)(=O)/N=C(\NO)Nc2ccc(Cl)cc2)cc1`, for which the TGI is 29.3 µM in [1]; 26 µM in assay [2]; 29.6 µM in assay [3]; 28.2 µM in [4]; 26.3 µM in [5]; 30.9 µM in assay [6]. For the same compound, the TGI in assay [7] was 28.1 µM; in assay [8], 31.8 µM; in assay [9] it was 27.8 µM; in assay [10] it was 34.4 µM.
Turning to `CCN(CC)CCOC(=O)Cc1cccc2c(=O)cc(-c3ccccc3)oc12`, the TGI in [1] was 50.2 µM; in assay [2], 62.5 µM and > 154 µM; in assay [3], 62.5 µM and > 212 µM; in assay [4] it was 62.5 µM and > 145 µM; in [5], 62.5 µM; in assay [6], 58.7 µM and > 144 µM. The TGI in assay [7] is 62.5 µM and > 179 µM; in [8], 62.5 µM and > 108 µM; in [9] it was 51 µM and > 224 µM; in assay [10], 62.5 µM and > 141 µM. The GI50 was 67 µM in assay [2]; 52.9 µM in assay [3]; 40.2 µM in assay [4]; 18.3 µM in assay [5]; 52.6 µM in assay [6]; 58.6 µM in assay [7]. Also, in [10], the GI50 was 19.2 µM.
Take `O=C1CS[C@@](CC(c2ccc(Cl)cc2)c2ccc(Cl)cc2)(c2ccc(Cl)cc2)N1`: the TGI in assay [1] was over 100 µM; in assay [2], over 100 µM; in assay [3], 87.6 µM; in [4], 45.8 µM; in assay [5] it was over 100 µM; in [6], 17.6 µM. Moreover, the TGI in [7] was 64.4 µM; in assay [8], over 100 µM; in assay [9], 35.6 µM; in [10], 47.5 µM.
Take `CCCc1nnc2sc(COc3cc(Cl)c(OCc4nn5c(CCC)nnc5s4)cc3Cl)nn12`: the TGI is 63.5 µM in assay [1]; over 100 µM in assay [2]; over 100 µM in assay [3]; 98.4 µM in assay [4]; 80.5 µM in [5]; over 100 µM in [6]. Moreover, the TGI is over 100 µM in assay [7], 82.5 µM in assay [8], over 100 µM in [9] and over 100 µM in assay [10].
`COc1cccc(C2SC(C)C(=O)N2CCc2cccs2)c1` (configuration not stated): the GI50 is 1.78 µM in assay [1]; 3.17 µM in [2]; 2.77 µM in assay [3]; 1.25 µM in assay [4]; 2.25 µM in [5]; 4.26 µM in assay [6]. In addition, the GI50 in assay [7] was 3.6 µM; in assay [8] it was 2.95 µM; in assay [9], 1.88 µM; in assay [10] it was 2.68 µM. In addition, the TGI in assay [1] came to 11.6 µM; in assay [2] it was 10.3 µM; in assay [3], 11.5 µM; in assay [4], 10.5 µM; in [5] it was 11.2 µM; in assay [6] it was 16.4 µM. Further, the TGI was determined as 13.6 µM in [7], 13.2 µM in [8], 5.39 µM in assay [9] and 11.2 µM in assay [10].
Consider `O=C(O)CCc1ccc2c(c1)CC1(Cc3ccccc3C1)C2`, for which the TGI in assay [1], in [2], in [3], in [4], in [5] and in assay [6] was over 100 µM throughout. The TGI in assay [7], in assay [8], in [9] and in [10] was over 100 µM each time.
For `Cc1cc2oc(C)c(S(=O)(=O)NC(=O)Nc3ccc(Cl)cc3)c(=O)c2c(=O)o1`, the TGI in assay [1], in [2], in assay [3], in assay [4], in assay [5] and in [6] was over 100 µM each time. The TGI in [7], in assay [8], in [9] and in [10] was over 100 µM in each case.
`O=C(N/N=C(/COc1ccccc1Cl)N=Cc1ccncc1)c1ccncc1`: the TGI in [1], in assay [2], in assay [3], in [4], in assay [5] and in assay [6] was over 100 µM throughout. For the same compound, the TGI in [7], in assay [8], in assay [9] and in [10] was over 100 µM in each case.
In the case of `C=Cc1nc(C#N)c(N)o1`, the TGI in assay [1], in assay [2], in assay [3], in [4], in assay [5] and in assay [6] was over 100 µM throughout. Moreover, the TGI in assay [7], in assay [8], in [9] and in assay [10] was over 100 µM throughout.
On to `COc1cc2c(cc1OC)[C@@](C)(C(O)C(O)C(C)(C)O)NCC2` (some centres not stated), for which the TGI in assay [1], in [2], in assay [3], in assay [4], in [5] and in assay [6] was over 100 µM throughout. Moreover, the TGI in assay [7], in assay [8], in assay [9] and in assay [10] was over 100 µM throughout.
For `CCOC(=O)C(=CN1CCNC1=S)C(=O)OCC`, the TGI in assay [1], in [2], in assay [3], in assay [4], in assay [5] and in assay [6] was over 100 µM in each case. Moreover, the TGI in assay [7], in [8], in [9] and in assay [10] was over 100 µM throughout.
